Article PMC9841532, “Exploring the Effect of Halogenation in a Series of Potent and Selective A2B Adenosine Receptor Antagonists” (Journal of Medicinal Chemistry, 2022)

Tests used:
[1] = molecular target: T1, A2BAR (Homo sapiens, UniProt P29275); experiment: cAMP accumulation assay in HEK-293 cells permanently expressing A2BAR-SNAP; type: cell-based; details: read-out: KB (hA2B)
T1 construct: expressed in transfected cells; host or cells: HEK-293 T cells permanently expressing pRK5-A2BAR^SNAP
T1 sequence (P29275 1-332): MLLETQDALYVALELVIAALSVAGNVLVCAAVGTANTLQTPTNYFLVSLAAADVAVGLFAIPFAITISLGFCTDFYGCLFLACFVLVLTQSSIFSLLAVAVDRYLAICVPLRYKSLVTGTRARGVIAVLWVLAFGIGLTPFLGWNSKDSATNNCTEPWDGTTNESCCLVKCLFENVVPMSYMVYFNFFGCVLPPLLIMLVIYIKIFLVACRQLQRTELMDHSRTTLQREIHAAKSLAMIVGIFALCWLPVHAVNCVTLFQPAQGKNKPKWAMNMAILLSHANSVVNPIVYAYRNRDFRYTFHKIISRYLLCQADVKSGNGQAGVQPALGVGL
Experimental: To assess their ability to block A2BAR agonist intrinsic activity, the effect on A2BAR-mediated cAMP accumulation and cellular impedance was evaluated. To this end, we used HEK-293 cells permanently expressing the A2BAR^SNAP construct, which can be visualized upon staining the cells with a SNAP-fluorescent substrate.
Scale bar: […]. […] Data are expressed as mean ± SEM (n = 4).
cAMP accumulation was measured using the LANCE Ultra cAMP kit (PerkinElmer, Waltham, Massachusetts, USA) as previously described.[55] […] The 384-well plate was incubated 1 h at 22 °C in the dark and was then read on a CLARIOstar Microplate Reader (BMG Labtech, Durham, North Carolina, USA). […] Data were fitted by non-linear regression using GraphPad Prism 9 (San Diego, California, USA).

[2] = molecular target: T1, A2BAR; experiment: Cellular impedance label-free assay (xCELLigence) in A2BAR-SNAP cells; type: cell-based; details: compound 1 μM, NECA 1 μM, 45 min, n = 4
From the text: To further evaluate the ability of 16b, 16j, 16r, and 16s to preclude A2BAR function in living cells, we took advantage of the cellular impedance label-free method, a widely accepted morphological and functional biosensor of cell status.[39] Accordingly, whole-cell NECA-mediated impedance responses of A2BAR^SNAP cells were monitored in real time in the absence or presence of 16b, 16j, 16r, and 16s.
Figure 4 Blockade of A2BAR-mediated whole-cell label-free responses. (A) Representative example of the impedance signal obtained over the time upon incubation with A2BAR ligands. […] (B) The area under the curve (AUC) derived from the normalized cell index (NCI) shown in (A) was calculated for each condition. Data are expressed as mean ± SEM (n = 4). ***P < 0.001 and **P < 0.01, one-way ANOVA with a Dunnett’s multiple-comparison test when compared to vehicle (Veh).
The xCELLigence RTCA system (Roche) was employed to assess the impact of blocking A2BAR-mediated effects in cellular impedance upon receptor activation, as previously described.[57]−[60] To this end, A2BAR^SNAP cells were growth in 16-well E-plates (Roche), using DMEM supplemented with 1 mM sodium pyruvate, 2 mM L-glutamine, 100 U/mL streptomycin, […] penicillin, and 1.5% (v/v) fetal bovine serum in the presence of 0.5 U/mL of ADA. Of note, wells were previously coated with 50 μL fibronectin (10 μg/mL; Sigma-Aldrich) and the background index for each well was determined with supplemented DMEM (90 μL) in the absence of cells. Subsequently, A2BAR^SNAP cells (90 μL) were plated at a cell density of 10,000 cells/well and grown for 18 h in the RTCA SP device station (Roche) at 37 °C in an atmosphere of 5% CO2. Then, before ligand addition, cell index values were normalized to the same time point using the RTCA software, providing the normalized cell index (NCI). After ligand stimulation, NCI was recorded every 15 s for a total time of at least 45 min. The area under the curve (AUC) for every condition was calculated using GraphPad Prism 9.

[3] = Human microsomal stability; type: in vitro ADME; details: human microsomes; for microsomal stability percent (percentage remanent): sampling time 60 min; for microsomal CLint at 1 h / half-life at 1 h: human, pH 7.4; for microsomal CLint at 1 h: read-out: microsomal stability Clint (intrinsic clearance); for half-life at 1 h: read-out: microsomal stability t1/2
Experimental: The human microsomal stability of selected compounds was evaluated by following a previously described method.[31] The human microsomes employed were purchased from Tebu-Xenotech. The compound was incubated with the microsomes at 37 °C in a 50 mM phosphate buffer (pH = 7.4) containing 3 mM MgCl2, 1 mM NADP, 10 mM glucose-6-phosphate, and 1 U/mL glucose-6-phosphate-dehydrogenase. Samples (75 μL) were taken from each well at 0, 10, 20, 40, and 60 min and transferred to a plate containing 4 °C 75 μL acetonitrile and 30 μL of 0.5% formic acid in water was added for improving the chromatographic conditions. The plate was centrifuged (46,000 g, 30 min), and supernatants were taken and analyzed in a UPLC-MS/MS (Xevo TQD, Waters) by employing a BEH C18 column and an isocratic gradient of 0.1% formic acid in water:0.1% formic acid acetonitrile (60:40). The metabolic stability of the compounds was calculated from the logarithm of the remaining compounds at each of the time point studied.

SMILES | Kb [1] [nM] | Blockade of NECA-induced changes in cellular impedance (AUC of normalized cell index) [2] | microsomal stability percent (percentage remanent) [3] [%] | microsomal CLint at 1 h [3] [µL/min/mg] | half-life at 1 h [3] [min]
CC1=C(C(=O)OC(C)C)C(c2ccco2)n2c(nc3cc(Br)ccc32)N1 (stereo not drawn) [16r] | 1.7 ± 0.6 | significantly blocked | 32.13 | 14.2 | 36.8
CC1=C(C(=O)OC(C)C)C(c2ccco2)n2c(nc3cc(Cl)ccc32)N1 (stereo not drawn) [16j] | 0.6 ± 0.2 | significantly blocked | 22.75 | 18.6 | 28.1
CC1=C(C(=O)OC(C)C)C(c2ccco2)n2c(nc3cc(F)ccc32)N1 (stereo not drawn) [16b] | 0.8 ± 0.2 | significantly blocked | 19.83 | 20.1 | 27.4
